Where “and” joins values, the source holds several entries; their conditions need not be identical. Equal values may be shown once. ± gives the expanded uncertainty stated by the source.
Settings: 303.15 K; Liquid; Closed cell (Static) method

SMILES	vapor or sublimation pressure
ClC(Cl)(Cl)Cl [tetrachloromethane]	18.83 ± 0.083 kPa
ClC(Cl)Cl [trichloromethane]	32.41 ± 0.13 kPa
CCOCCO [2-ethoxyethan-1-ol]	0.981 ± 0.017 kPa and 0.984 ± 0.017 kPa and 0.968 ± 0.017 kPa
ClCCl [dichloromethane]	70.49 ± 0.27 kPa

— the NIST ThermoML archive (doi:10.1021/je034153o)
